According to ChEMBL document CHEMBL5257025, “Artemisinin-Derived Dimers: Potent Antimalarial and Anticancer Agents” (J Med Chem, 2016):
Blank lines part the entries; values can stand above or below the compound they belong to.

How the values were obtained:
SK-MEL = test: Antiproliferative activity against human SK-MEL cells assessed as reduction in cell viability incubated for 48 hrs by MTT assay; type: functional, cell-based
XF498 = test: Antiproliferative activity against human XF498 cells assessed as reduction in cell viability incubated for 48 hrs by MTT assay; type: functional, cell-based; details: XF498, 48 h
HL-60 = test: Growth inhibition of human HL-60 cells assessed as cell growth inhibition measured after 48 hrs by MTT assay; type: functional
Plasmodium falciparum [1] = test: microbe, parasite or virus in culture; details: Dd2
Description: Antiplasmodial activity against Plasmodium falciparum Dd2 assessed as inhibition of parasitic growth

Plasmodium falciparum [2] = test: Antimalarial activity against Plasmodium falciparum NF54 assessed as inhibition of cell growth incubated for 72 hrs by SYBR Green I staining based fluorescence analysis; type: functional, organism-based; details: NF54, 72 h
Plasmodium falciparum [3] = test: Antimalarial activity against Plasmodium falciparum HB3 assessed as inhibition of malarial growth; type: functional, organism-based
Plasmodium falciparum [4] = test: Antimalarial activity against Plasmodium falciparum K1 assessed as inhibition of malarial growth; type: functional, organism-based
Jurkat = test: Antiproliferative activity against human Jurkat cells assessed as reduction in cell viability incubated for 48 hrs by MTT assay; type: functional, cell-based
Ehrlich = test: Cytotoxicity against mouse Ehrlich cells assessed as growth inhibition at 100 ug/ml; type: functional, cell-based
TRAMP-C1A = test: Cytotoxicity against mouse TRAMP-C1A cells assessed as inhibition of cell growth measured after 72 hrs by MTT assay; type: functional, cell-based
C2G cell line = test: Cytotoxicity against mouse C2G cells assessed as inhibition of cell growth measured after 72 hrs by MTT assay; type: functional, cell-based
TRAMP-C2H = test: Cytotoxicity against mouse TRAMP-C2H cells assessed as inhibition of cell growth measured after 72 hs by MTT assay; type: functional, cell-based
C2D cell line = test: Cytotoxicity against mouse C2D cell line assessed as inhibition of cell growth measured after 72 hrs by MTT assay; type: functional, cell-based
Plasmodium falciparum [5] = test: Antimalarial activity against Plasmodium falciparum NF54 assessed as reduction in cell growth; type: functional, organism-based
P388 = test: Antiproliferative activity against mouse P388 cells assessed as cell growth inhibition incubated for 72 hrs by MTT assay; type: functional, cell-based; details: P388, 72 h
BeWo = test: Antiproliferative activity against human BeWo cells assessed as reduction in cell viability after 72 hrs by MTT assay; type: functional, cell-based
HT-29 = test: cells; details: Homo sapiens, HT-29, 72 h
[6] = Antiproliferative activity against human YD-10B cells assessed as cell growth inhibition measured after 72 hrs by MTT assay; type: functional, cell-based
MCF7 [7] = test: Antiproliferative activity against human MCF7 cells assessed as reduction in cell viability measured after 48 hrs by SRB assay; type: functional, cell-based; details: MCF7, 48 h
HeLa = test: Antiproliferative activity against human Hela cells assessed as cell growth inhibition measured after 48 hrs by MTT assay; type: functional, cell-based
[8] = Antiproliferative activity against human 1205Lu cells assessed as reduction in cell growth; type: functional, cell-based
[9] = Cytotoxicity against human HFF cells assessed as cell growth inhibition measured after 48 hrs by MTT assay; type: toxicity, cell-based
HCT-116 = test: Antiproliferative activity against human HCT-116 cells assessed as growth after 48 hrs by MTT assay; type: functional, cell-based; details: HCT-116, 48 h
MDA-MB-231 = test: Antiproliferative activity against human MDA-MB-231 cells assessed as reduction in cell viability measured after 48 hrs by MTT assay; type: functional, cell-based; details: MDA-MB-231, 48 h
BT-474 = test: Antiproliferative activity against human BT-474 cells assessed as reduction in cell growth measured after 72 hrs by MTT assay; type: functional, cell-based; details: BT-474, 72 h
SK-MEL-2 = test: Antiproliferative activity against human SK-MEL-2 cells assessed as reduction in cell viability incubated for 48 hrs by MTT assay; type: functional, cell-based; details: SK-MEL-2, 48 h
[10] = Cytotoxicity against rat MTLn3 cells assessed as cell growth inhibition; type: toxicity, cell-based
TK-10 = test: Growth inhibition of human TK-10 cells assessed as cell growth inhibition measured after 48 hrs by MTT assay; type: functional
MCF7 [11] = test: Growth inhibition of human MCF7 cells assessed as cell growth inhibition incubated for 48 hrs by MTT assay; type: functional
UACC-62 = test: Growth inhibition of human UACC-62 cells assessed as cell growth inhibition measured after 48 hrs by MTT assay; type: functional
Plasmodium falciparum [12] = test: Antimalarial activity against Plasmodium falciparum 3D7 assessed as inhibition of malarial growth; type: functional, organism-based
BT-549 = test: Antiproliferative activity against human BT-549 cells assessed as reduction in cell viability incubated for 48 hrs by MTT assay; type: functional, cell-based; details: BT-549, 48 h

Compound: C[C@@H]1CC[C@H]2[C@@H](C)C(CCC(=O)NCCCN3CCN(CCCNC(=O)CCC4O[C@H]5O[C@]6(C)CC[C@H]7[C@H](C)CC[C@@H]([C@H]4C)[C@@]57OO6)CC3)O[C@H]3O[C@]4(C)CC[C@@H]1[C@]32OO4 (some centres undefined)
IC50 (SK-MEL): 450 nM
IC50 (XF498): 460 nM

Compound: C[C@@H]1CC[C@H]2[C@@H](C)C(CCN3CCC(C4CCN(CCC5O[C@H]6O[C@@]7(C)CC[C@H]8[C@H](C)CC[C@@H]([C@H]5C)[C@@]68OO7)CC4)CC3)O[C@H]3O[C@@]4(C)CC[C@@H]1[C@]32OO4 (some centres undefined)
GI50 (HL-60): 400 nM

IC50 (Plasmodium falciparum [1]): 2730 nM
Compound: C[C@@H]1CC[C@H]2[C@@H](C)C(O)O[C@H]3O[C@]4(C)CC[C@@H]1[C@]32O4 (some centres undefined)

Compound: C[C@H]1[C@H](CC(F)(F)c2ccc(C(F)(F)C[C@H]3O[C@H]4O[C@@]5(C)CC[C@H]6[C@H](C)CC[C@@H]([C@H]3C)[C@@]46OO5)cc2)O[C@H]2O[C@@]3(C)CC[C@H]4[C@H](C)CC[C@@H]1[C@@]24OO3
IC50 (Plasmodium falciparum [2]): 15 nM

Compound: C[C@@H]1CC[C@H]2[C@@H](C)C(CCCOP(=O)(OCCC3O[C@H]4O[C@@]5(C)CC[C@H]6[C@H](C)CC[C@@H]([C@H]3C)[C@@]46OO5)Oc3ccccc3)O[C@H]3O[C@@]4(C)CC[C@@H]1[C@]32OO4 (some centres undefined)
IC50 (Plasmodium falciparum [3]): 0.18 nM
GI50 (HL-60): 241 nM
IC50 (Plasmodium falciparum [4]): 0.5 nM
IC50 (Jurkat): 13200 nM

Compound: C[C@H]1[C@H](O[C@H]2O[C@H]3O[C@@]4(C)CC[C@H]5[C@H](C)CC[C@@H]([C@H]2C)[C@@]35OO4)O[C@H]2O[C@@]3(C)CC[C@H]4[C@H](C)CC[C@@H]1[C@@]24OO3
IC50 (Ehrlich): 3600 nM

Compound: C[C@@H]1CC[C@H]2[C@@H](C)C(CC(COC(=O)c3cc[n+]([O-])cc3)CC3O[C@H]4O[C@@]5(C)CC[C@H]6[C@H](C)CC[C@@H]([C@H]3C)[C@@]46OO5)O[C@H]3O[C@@]4(C)CC[C@@H]1[C@]32OO4 (some centres undefined)
IC50 (TRAMP-C1A): 84.6 nM
IC50 (C2G cell line): 47.4 nM
IC50 (TRAMP-C2H): 36.1 nM
IC50 (C2D cell line): 62.1 nM
IC50 (Plasmodium falciparum [5]): 0.53 nM

Compound: C[C@@H]1CC[C@H]2[C@@H](C)C(CCSCCC3O[C@@H]4O[C@]5(C)CC[C@@H]6[C@@H](C)CC[C@H]([C@@H]3C)[C@]46OO5)O[C@H]3O[C@@]4(C)CC[C@@H]1[C@]32OO4 (some centres undefined)
IC50 (P388): 640 nM
IC50 (BeWo): 22800 nM
IC50 (HT-29): 390 nM
IC50 [6]: 9300 nM
IC50 (MCF7 [7]): 30 nM

Compound: C[C@@H]1CC[C@H]2[C@@H](C)C(CC(CC3O[C@@H]4O[C@]5(C)CC[C@@H]6[C@@H](C)CC[C@H]([C@@H]3C)[C@]46OO5)CS(=O)(=O)c3ccc(COC(=O)N(C)C)cc3)O[C@H]3O[C@@]4(C)CC[C@@H]1[C@]32OO4 (some centres undefined)
IC50 (HeLa): 270 nM
IC50 [8]: 130 nM
IC50 at 48 h [9]: 57500 nM
IC50 (HCT-116): 70 nM

Compound: C[C@@H]1CC[C@H]2[C@@H](C)C(CC(COC(=O)CCC(=O)O)CC3O[C@H]4O[C@@]5(C)CC[C@H]6[C@H](C)CC[C@@H]([C@H]3C)[C@@]46OO5)O[C@H]3O[C@@]4(C)CC[C@@H]1[C@]32OO4 (some centres undefined)
IC50 (MDA-MB-231): 32000 nM
IC50 (BT-474): 390 nM
IC50 (Plasmodium falciparum [5]): 2 nM

Compound: C[C@H]1[C@@H](CC(F)(F)c2ccc(C(F)(F)C[C@H]3O[C@H]4O[C@@]5(C)CC[C@H]6[C@H](C)CC[C@@H]([C@H]3C)[C@@]46OO5)cc2)O[C@H]2O[C@@]3(C)CC[C@H]4[C@H](C)CC[C@@H]1[C@@]24OO3
IC50 (Plasmodium falciparum [2]): 28 nM

Compound: C[C@@H]1CC[C@H]2[C@@H](C)C(OCC(=O)COC3O[C@@H]4O[C@]5(C)CC[C@@H]6[C@@H](C)CC[C@H]([C@@H]3C)[C@]46OO5)O[C@H]3O[C@@]4(C)CC[C@@H]1[C@]32OO4 (some centres undefined)
IC50 (SK-MEL-2): 560 nM

Compound: C[C@@H]1CC[C@H]2[C@@H](C)C(CC(CC3O[C@@H]4O[C@]5(C)CC[C@@H]6[C@@H](C)CC[C@H]([C@@H]3C)[C@]46OO5)C(=O)N/N=C/c3ccccc3O)O[C@H]3O[C@@]4(C)CC[C@@H]1[C@]32OO4 (some centres undefined)
IC50 [10]: 52 nM

Compound: COP(=O)(OCCCC1O[C@H]2O[C@@]3(C)CC[C@H]4[C@H](C)CC[C@@H]([C@H]1C)[C@@]24OO3)OCCC1O[C@H]2O[C@@]3(C)CC[C@H]4[C@H](C)CC[C@@H]([C@H]1C)[C@@]24OO3 (some centres undefined)
IC50 (Plasmodium falciparum [3]): 0.09 nM
GI50 (HL-60): 143 nM
IC50 (Plasmodium falciparum [4]): 0.2 nM
IC50 (Jurkat): 7700 nM

Compound: C[C@@H]1CC[C@H]2[C@@H](C)C(CC(CC3O[C@@H]4O[C@]5(C)CC[C@@H]6[C@@H](C)CC[C@H]([C@@H]3C)[C@]46OO5)C(=O)O)O[C@H]3O[C@@]4(C)CC[C@@H]1[C@]32OO4 (some centres undefined)
IC50 (TRAMP-C1A): 159 nM
IC50 (C2G cell line): 134 nM
IC50 (C2D cell line): 231 nM
IC50 (Plasmodium falciparum [5]): 2.4 nM

Compound: C[C@@H]1CC[C@H]2[C@@H](C)C(OCCC(CCCNc3ccnc4ccc(Cl)cc34)CCOC3O[C@@H]4O[C@]5(C)CC[C@@H]6[C@@H](C)CC[C@H]([C@@H]3C)[C@]46OO5)O[C@H]3O[C@@]4(C)CC[C@@H]1[C@]32OO4 (some centres undefined)
GI50 (TK-10): 80 nM
GI50 (MCF7 [11]): 30 nM
GI50 (UACC-62): 50 nM
IC50 (Plasmodium falciparum [12]): 8.7 nM

Compound: C[C@@H]1CC[C@H]2[C@@H](C)C(OCC(O)COC3O[C@@H]4O[C@]5(C)CC[C@@H]6[C@@H](C)CC[C@H]([C@@H]3C)[C@]46OO5)O[C@H]3O[C@@]4(C)CC[C@@H]1[C@]32OO4 (some centres undefined)
IC50 (BT-549): 480 nM

Compound: C[C@H]1[C@@H](O[C@H]2O[C@H]3O[C@@]4(C)CC[C@H]5[C@H](C)CC[C@@H]([C@H]2C)[C@@]35OO4)O[C@H]2O[C@@]3(C)CC[C@H]4[C@H](C)CC[C@@H]1[C@@]24OO3
IC50 (Ehrlich): 31200 nM

Compound: C[C@@H]1CC[C@H]2[C@@H](C)C(CC(CC3O[C@@H]4O[C@]5(C)CC[C@@H]6[C@@H](C)CC[C@H]([C@@H]3C)[C@]46OO5)CS(=O)(=O)c3ccc(CO)cc3)O[C@H]3O[C@@]4(C)CC[C@@H]1[C@]32OO4 (some centres undefined)
IC50 (HeLa): 560 nM
IC50 [8]: 100 nM
IC50 at 48 h [9]: 4900 nM
IC50 (HCT-116): 70 nM

Compound: C[C@@H]1CC[C@H]2[C@@H](C)C(CC(COP(=O)(Oc3ccccc3)Oc3ccccc3)CC3O[C@@H]4O[C@]5(C)CC[C@@H]6[C@@H](C)CC[C@H]([C@@H]3C)[C@]46OO5)O[C@H]3O[C@@]4(C)CC[C@@H]1[C@]32OO4 (some centres undefined)
IC50 (HeLa): 190 nM
IC50 [8]: 60 nM
IC50 at 48 h [9]: 55800 nM
IC50 (HCT-116): 40 nM

Compound: C[C@@H]1CC[C@H]2[C@@H](C)C(OCCCN3CC[N+](CCCOC4O[C@@H]5O[C@]6(C)CC[C@@H]7[C@@H](C)CC[C@H]([C@@H]4C)[C@]57OO6)(CCNc4ccnc5cc(Cl)ccc45)CC3)O[C@H]3O[C@@]4(C)CC[C@@H]1[C@]32OO4 (some centres undefined)
GI50 (TK-10): 80 nM
GI50 (MCF7 [11]): 30 nM
GI50 (UACC-62): 40 nM
IC50 (Plasmodium falciparum [12]): 29.5 nM

IC50 (HeLa): 7100 nM
IC50 (HCT-116): 7100 nM
Compound: C[C@H]1[C@H](OC(=O)CCC(=O)O)O[C@@H]2O[C@@]3(C)CC[C@H]4[C@H](C)CC[C@@H]1[C@@]24OO3 [ARTESUNATE]
IC50 [8]: 7100 nM
CC50 at 48 h ([9]; time 48 hrs, read-out: TC50): 717000 nM

Compound: Nc1ccn([C@@H]2O[C@H](CO)[C@@H](O)C2(F)F)c(=O)n1 [GEMCITABINE]
IC50 (TRAMP-C1A): 3.7 nM
IC50 (C2G cell line): 3.7 nM
IC50 (TRAMP-C2H): 3.7 nM
IC50 (C2D cell line): 3.7 nM
